Results as given in patent US20230088719A1, “USE OF BMP INHIBITORS IN THE TREATMENT OF MOLAR PREGNANCY” (BOGAZICI UNIVERSITESI, priority 2020, published 2023).
“Also recorded” adds a separate entry of the source.

System: complete mole iPS cells
Assay: Trophoblast differentiation of complete mole iPS cells under AP conditions with BMP receptor inhibitor LDN193189
Type: cell-based, human
Procedure: FIG. 9—Preventing trophoblast differentiation in complete mole iPS cells by inhibition of the BMP signaling pathway. Cells are exposed to vehicle (DMSO) or BMP receptor inhibitor LDN193189 (100 nM) under AP conditions. (A) Changes in colony morphology by LDN193189 treatment. Pictures were obtained with 4× magnification. (B) Heat map showing the expression of trophoblast markers during differentiation of healthy and complete mole iPS cells (n=2 biological replicas) (C-D) Violin plot representation of pluripotency and trophoblast markers (n=2, ****p<0.001, Wilcoxon rank total test) (E) RT-qPCR for trophoblast and stem cell markers. Sidak multiple comparison tests were applied following 2-way ANOVA, *p<0.05, **p<0.01, ***p<0.005, ****p<0.001. Bars; showing±Standard Deviation. (F) Representative immunoblots for CDX2, HLA-G, KRT7 and OCT3/4.
In accordance the purpose of the present invention, the inventors applied it to the nutrition fluid of cells under LDN193189 AP conditions to test whether BMP receptor inhibitors can attenuate trophoblast differentiation or not. […] (FIG. 10A)
Trophoblast cells were formed from the obtained IPSCs under BAP or AP conditions. IPS cells were routinely kept on MEFs with hES medium (10 ng/mL FGF2). For trophoblast differentiation, 2.4×10^4 cells per square centimeter were seeded on matrigel-coated plates with conditioned hES medium through a monolayer of mitomycin-C treated MEF nutrient cells (MEF-CM) containing FGF2 (10 ng/mL). Next day, the medium was changed as MEF-CM containing 4 ng/mL FGF2. Next day, the medium was changed as BMP4 (10 ng/mL) containing unconditioned (BAP) hESC basal medium with MEF nutrient cells (RD Systems), ALK4/5/7 inhibitor, A83-01 (1 μM) (Tocris) and FGF2-signal inhibitor PD173074 […] (Sigma) (22, 27, 28). Control cultures were grown in the presence of FGF2 and in the absence of BAP. The medium was refreshed daily.
Total RNA was extracted using the Direct-zol RNA Isolation Kit (Zymogen) and cDNA was synthesized using the Sensifast cDNA synthesis kit (Bioline) as described by the manufacturer. Sequences of primers used in gene expression were synthesized by Macrogen as listed in table 3. qRT-PCR was performed on Exicycler™ 96 (Bioneer) using SensiFAST™ SYBRQR No-ROX Kit (Bioline). qRT-PCR results were analysed by the Ct method for relative amounts by taking GAPDH or HPRT as internal controls.
Cells were harvested in RIPA lysis buffer (150 mM NaCl, 1% NP40, 0.5% sodium deoxycholate, 0.1% SDS, 50 mM Tris pH 7.4) supplied with protease and phosphatase inhibitors (Roche, Switzerland). TCA-acetone precipitation was performed for the supernatants. Protein samples were applied to the SDS gel. Semi-dry transfer was performed by using Blotting papers (Sigma-Aldrich, USA) and PVDF membrane (Millipore, Ireland). After blocking with 5% non-fat dry milk, membranes were incubated overnight with primary antibodies (1:1000) at +4° C. Next day, the membrane was incubated with secondary antibodies connected with 1:2000 HRP according to the host origin of the primary antibody. Between all steps, membranes were washed 3 times with TBS-T. Immunoblot membranes were visualized with the Syngene documentation system by using ECL HRP Substrate (Advansta, USA).
Total RNA was extracted by using the Direct-zol RNA Isolation Kit (Zymogen) according to the protocol of the manufacturer (n=2 in all cases). Library preparation procedure by using Truseq strand mRNA LT Sample Preparation Kit (Illumina) and RNA sequencing procedure by using Hiseq2500 (Illumina) were performed by Macrogen Inc. (Korea). RNA sequence data were processed and interpreted with the Genialis visual computing platform (www.genialis.com). Briefly, RNA sequence readings were subjected to correction (BBDuk), mapping (STAR) and expression quantitation (featureCounts) procedures, respectively. The readings were mapped to Homo sapiens GRCh38 (Ensembl, version 92, ERCC). […]

[1] = complete mole cells, BMP pathway inhibition with LDN193189 100 nM, AP conditions, FIG. 9F
[2] = complete mole cells, LDN193189 100 nM, AP conditions, FIG. 9C-9D

## c1ccc2c(-c3cnn4cc(-c5ccc(N6CCNCC6)cc5)cnc34)ccnc2c1 [LDN193189]
LDN193189 100 nM, AP conditions, heat map of trophoblast markers FIG. 9B
  trophoblast differentiation of complete mole cells: inhibits trophoblast differentiation of complete mole cells; also recorded: suppression of excessive trophoblast differentiation
Cells treated with LDN193189, FIG. 10D
  hierarchical clustering at whole transcriptome level: clustered with non-differentiated iPS cells
Complete mole cells, BMP pathway inhibition with LDN193189 100 nM, AP conditions, FIG. 9E
  trophoblast gene expression by qRT-PCR: decrease in trophoblast gene expression
[1]
  CDX2, KRT7, HLA-G expression (immunoblot): stopped CDX2, KRT7, HLA-G increase in expression
  OCT3/4 expression (immunoblot): prevented decrease in expression (downregulation) of OCT3/4
Complete mole cells, LDN193189 100 nM, AP conditions (A83-01+PD173074, no BMP4), vs DMSO vehicle, FIG. 9A
  colony morphology (light microscopy): morphological phenotype similar to healthy cells
[2]
  expression of pluripotency markers (RNA sequencing, violin plot): remained highly expressed
  global expression of trophoblast markers (RNA sequencing, violin plot): decreased
